Legend:
[1] = target: Histone-lysine N-methyltransferase EZH2 (Homo sapiens, UniProt Q15910); test: Wild-Type PRC2 Enzyme Assay
Description: (§1) The assays were performed in a buffer consisting of 20 mM bicine (pH=7.6), 0.5 mM DTT, 0.005% BSG, 100 mM KCl and 0.002% Tween20, prepared on the day of use. […] DMSO (1 μL) was added to columns 11, 12, 23, 24, rows A-H for the maximum signal control, and SAH, a known product and inhibitor of PRC2 (1 μL) was added to columns 11, 12, 23, 24, rows I-P for the minimum signal control. A cocktail (40 μL) containing the wild-type PRC2 enzyme and chicken erythrocyte oligonucleosome was added by Multidrop Combi (Thermo). The compounds were allowed to incubate with PRC2 for 30 min at 25° C., then a cocktail (10 μL) containing a mixture of non-radioactive and 3H-SAM was added to initiate the reaction (final volume=51 μL). […] The assay was stopped by the addition of non-radioactive SAM (10 μL) to a final concentration of 600 μM, which dilutes the 3H-SAM to a level where its incorporation into the chicken erythrocyte olignonucleosome substrate is no longer detectable. […] The plates were then read in a PerkinElmer TopCount platereader to measure the quantity of 3H-labeled chicken erythrocyte oligonucleosome bound to the Flashplate surface, measured as disintegrations per minute (dpm) or alternatively, referred to as counts per minute (cpm).

[2] = target: Histone-lysine N-methyltransferase EZH2 [Y641F] (Homo sapiens, UniProt Q15910, Y641F); test: Wild-Type PRC2 Enzyme Assay
Histone-lysine N-methyltransferase EZH2 [Y641F], sequence (Q15910 whole entry Y641F): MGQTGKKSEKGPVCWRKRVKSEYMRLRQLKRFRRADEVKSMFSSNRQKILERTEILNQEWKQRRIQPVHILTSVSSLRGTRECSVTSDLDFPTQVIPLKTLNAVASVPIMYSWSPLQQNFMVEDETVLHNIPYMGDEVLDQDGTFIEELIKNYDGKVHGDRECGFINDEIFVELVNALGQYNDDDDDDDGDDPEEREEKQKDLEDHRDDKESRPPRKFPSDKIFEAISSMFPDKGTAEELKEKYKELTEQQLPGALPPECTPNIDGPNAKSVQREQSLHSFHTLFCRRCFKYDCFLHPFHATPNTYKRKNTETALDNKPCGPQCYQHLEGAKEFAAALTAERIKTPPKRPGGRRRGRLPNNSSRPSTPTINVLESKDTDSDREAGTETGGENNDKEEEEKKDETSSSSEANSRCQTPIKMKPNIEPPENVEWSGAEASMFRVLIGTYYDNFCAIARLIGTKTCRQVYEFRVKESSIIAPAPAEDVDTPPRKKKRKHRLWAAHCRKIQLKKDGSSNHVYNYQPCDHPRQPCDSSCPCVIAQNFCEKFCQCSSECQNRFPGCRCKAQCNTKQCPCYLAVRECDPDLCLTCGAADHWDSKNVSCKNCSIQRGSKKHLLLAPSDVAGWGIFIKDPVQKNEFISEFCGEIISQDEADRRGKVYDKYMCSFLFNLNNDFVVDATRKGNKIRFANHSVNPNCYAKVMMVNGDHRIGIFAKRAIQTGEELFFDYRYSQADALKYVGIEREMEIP
Description: as §1

Histone-lysine N-methyltransferase EZH2, sequence (Q15910 whole entry): as the sequence (Q15910 whole entry Y641F) above, with F641Y counted along it

IC50 [1]: 15.1 µM | IC50 [2]: 8.35 µM
Structure (SMILES): CCN(c1cc(Cl)cc(C(=O)NCc2c(C)cc3cc[nH]n3c2=O)c1C)[C@H]1CC[C@H](N(C)C)CC1 [US10150764, Compound 2]

— BindingDB's records for patent US10150764 (Epizyme, 2018)
